BindingDB's records for doi:10.1021/jm0704550 (Cnrs, 2007)
Values belong to the molecule of their own block, whether it stands above or below them.

Target: Growth hormone secretagogue receptor type 1 (Homo sapiens, UniProt Q92847)
Assay: Receptor Binding Studies

Sequence of Growth hormone secretagogue receptor type 1 (Q92847 whole entry): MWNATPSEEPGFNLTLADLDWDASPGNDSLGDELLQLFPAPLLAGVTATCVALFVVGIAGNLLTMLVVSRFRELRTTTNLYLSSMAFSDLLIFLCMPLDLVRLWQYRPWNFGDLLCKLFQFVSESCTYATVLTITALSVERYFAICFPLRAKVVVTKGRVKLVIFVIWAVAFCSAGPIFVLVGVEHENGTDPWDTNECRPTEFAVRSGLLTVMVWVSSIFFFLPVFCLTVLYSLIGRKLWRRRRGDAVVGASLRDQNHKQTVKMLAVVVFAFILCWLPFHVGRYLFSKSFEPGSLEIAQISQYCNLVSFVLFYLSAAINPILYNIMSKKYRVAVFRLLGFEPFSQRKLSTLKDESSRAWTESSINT

- Kb (pH 7.3, 25 °C): 4 nM
SMILES: COc1ccc(Cn2c(CCc3c[nH]c4ccccc34)nnc2[C@@H](Cc2c[nH]c3ccccc23)NC(=O)C(C)(C)N)cc1

- Kb (pH 7.3, 25 °C): 11 nM
SMILES: COc1ccc(Cn2c(CCc3c[nH]c4ccccc34)nnc2[C@@H](Cc2c[nH]c3ccccc23)NC(=O)[C@@H]2CCCN2)c(OC)c1

- Kb: 5 nM
SMILES: COc1ccc(Cn2c(CCc3c[nH]c4ccccc34)nnc2[C@@H](Cc2c[nH]c3ccccc23)NC(=O)C2CNCCN2)c(OC)c1 (mixture of isomers) [N-[(1R)-1-{4-[(2,4-dimethoxyphenyl)methyl]-5-[2-(1H-indol-3-yl)ethyl]-4H-1,2,4-triazol-3-yl}-2-(1H-indol-3-yl)ethyl]piperazine-2-carboxamide]

- Kb (pH 7.3, 25 °C): 27 nM
SMILES: COc1ccc(Cn2c(CCc3c[nH]c4ccccc34)nnc2[C@@H](Cc2c[nH]c3ccccc23)NC(=O)CN)c(OC)c1 [2-amino-N-[(1R)-1-{4-[(2,4-dimethoxyphenyl)methyl]-5-[2-(1H-indol-3-yl)ethyl]-4H-1,2,4-triazol-3-yl}-2-(1H-indol-3-yl)ethyl]acetamide]

- EC50 (pH 7.3, 25 °C): 256 nM
SMILES: COc1ccc(Cn2c(CCc3ccccc3)nnc2[C@@H](Cc2c[nH]c3ccccc23)NC(=O)CCN)cc1 [3-amino-N-[(1R)-2-(1H-indol-3-yl)-1-{4-[(4-methoxyphenyl)methyl]-5-(2-phenylethyl)-4H-1,2,4-triazol-3-yl}ethyl]propanamide]

- IC50: 134 nM
SMILES: COc1ccc(Cn2c(CCc3ccccc3)nnc2[C@@H](Cc2c[nH]c3ccccc23)NC(=O)[C@H]2CCCCN2)c(OC)c1 [(2R)-N-[(1R)-1-{4-[(2,4-dimethoxyphenyl)methyl]-5-(2-phenylethyl)-4H-1,2,4-triazol-3-yl}-2-(1H-indol-3-yl)ethyl]piperidine-2-carboxamide]

- IC50: 375 nM
SMILES: CCc1ccc(Cn2c(CCc3ccccc3)nnc2[C@@H](Cc2c[nH]c3ccccc23)NC(=O)[C@H]2CCCCN2)cc1 [(2R)-N-[(1R)-1-{4-[(4-ethylphenyl)methyl]-5-(2-phenylethyl)-4H-1,2,4-triazol-3-yl}-2-(1H-indol-3-yl)ethyl]piperidine-2-carboxamide]

- IC50 (pH 7.3, 25 °C): 32 nM
- Kb (pH 7.3, 25 °C): 8 nM
SMILES: COc1ccc(Cn2c(CCc3ccccc3)nnc2[C@@H](Cc2c[nH]c3ccccc23)NC(=O)[C@H]2CCCN2)cc1 [(2R)-N-[(1R)-2-(1H-indol-3-yl)-1-{4-[(4-methoxyphenyl)methyl]-5-(2-phenylethyl)-4H-1,2,4-triazol-3-yl}ethyl]pyrrolidine-2-carboxamide]

- Kb: 8 nM
SMILES: COc1ccc(Cn2c(CCc3c[nH]c4ccccc34)nnc2[C@@H](Cc2c[nH]c3ccccc23)NC(=O)[C@H]2CCCCN2)cc1 [(2R)-N-[(1R)-2-(1H-indol-3-yl)-1-{5-[2-(1H-indol-3-yl)ethyl]-4-[(4-methoxyphenyl)methyl]-4H-1,2,4-triazol-3-yl}ethyl]piperidine-2-carboxamide]

- Kb (pH 7.3, 25 °C): 7 nM
SMILES: COc1ccc(Cn2c(CCc3c[nH]c4ccccc34)nnc2[C@@H](Cc2c[nH]c3ccccc23)NC(=O)[C@H]2CCCN2)cc1 [(2R)-N-[(1R)-2-(1H-indol-3-yl)-1-{5-[2-(1H-indol-3-yl)ethyl]-4-[(4-methoxyphenyl)methyl]-4H-1,2,4-triazol-3-yl}ethyl]pyrrolidine-2-carboxamide]

- IC50 (pH 7.3, 25 °C): 275 nM
SMILES: CCc1ccc(Cn2c(CCc3ccccc3)nnc2[C@@H](Cc2c[nH]c3ccccc23)NC(=O)[C@H](C)N)cc1 [(2S)-2-amino-N-[(1R)-1-{4-[(4-ethylphenyl)methyl]-5-(2-phenylethyl)-4H-1,2,4-triazol-3-yl}-2-(1H-indol-3-yl)ethyl]propanamide]

- Kb (pH 7.3, 25 °C): 24 nM
SMILES: COc1ccc(Cn2c(CCc3ccccc3)nnc2[C@@H](Cc2c[nH]c3ccccc23)NC(=O)[C@@H](N)Cc2ccccc2)cc1 [(2S)-2-amino-N-[(1R)-2-(1H-indol-3-yl)-1-{4-[(4-methoxyphenyl)methyl]-5-(2-phenylethyl)-4H-1,2,4-triazol-3-yl}ethyl]-3-phenylpropanamide]

- Kb (pH 7.3, 25 °C): 32 nM
SMILES: COc1ccc(Cn2c(CCc3ccccc3)nnc2[C@@H](Cc2c[nH]c3ccccc23)NC(=O)[C@@H]2CCCN2)c(OC)c1 [(2S)-N-[(1R)-1-{4-[(2,4-dimethoxyphenyl)methyl]-5-(2-phenylethyl)-4H-1,2,4-triazol-3-yl}-2-(1H-indol-3-yl)ethyl]pyrrolidine-2-carboxamide]

- IC50 (pH 7.3, 25 °C): 490 nM
SMILES: CCc1ccc(Cn2c(CCc3ccccc3)nnc2[C@@H](Cc2c[nH]c3ccccc23)NC(=O)[C@@H]2CCCN2)cc1 [(2S)-N-[(1R)-1-{4-[(4-ethylphenyl)methyl]-5-(2-phenylethyl)-4H-1,2,4-triazol-3-yl}-2-(1H-indol-3-yl)ethyl]pyrrolidine-2-carboxamide]

- IC50 (pH 7.3, 25 °C): > 1000 nM
SMILES: O=C(N[C@H](Cc1c[nH]c2ccccc12)c1nnc(CCc2ccccc2)n1-c1ccccc1)[C@@H]1CCCN1 [(2S)-N-[(1R)-2-(1H-indol-3-yl)-1-[4-phenyl-5-(2-phenylethyl)-4H-1,2,4-triazol-3-yl]ethyl]pyrrolidine-2-carboxamide]

- IC50 (pH 7.3, 25 °C): 9.5 nM
- Kb (pH 7.3, 25 °C): 13 nM
SMILES: COc1ccc(Cn2c(CCc3ccccc3)nnc2[C@@H](Cc2c[nH]c3ccccc23)NC(=O)[C@@H]2CCCN2)cc1 [(2S)-N-[(1R)-2-(1H-indol-3-yl)-1-{4-[(4-methoxyphenyl)methyl]-5-(2-phenylethyl)-4H-1,2,4-triazol-3-yl}ethyl]pyrrolidine-2-carboxamide]

- Kb (pH 7.3, 25 °C): 6 nM
SMILES: COc1ccc(Cn2c(CCc3c[nH]c4ccccc34)nnc2[C@@H](Cc2c[nH]c3ccccc23)NC(=O)[C@@H]2CCCN2)cc1 [(2S)-N-[(1R)-2-(1H-indol-3-yl)-1-{5-[2-(1H-indol-3-yl)ethyl]-4-[(4-methoxyphenyl)methyl]-4H-1,2,4-triazol-3-yl}ethyl]pyrrolidine-2-carboxamide]

- Kb (pH 7.3, 25 °C): 10 nM
SMILES: COc1ccc(Cn2c(CCc3ccccc3)nnc2[C@@H](Cc2c[nH]c3ccccc23)NC(=O)[C@H]2CCCNC2)cc1 [(3S)-N-[(1R)-2-(1H-indol-3-yl)-1-{4-[(4-methoxyphenyl)methyl]-5-(2-phenylethyl)-4H-1,2,4-triazol-3-yl}ethyl]piperidine-3-carboxamide]

- IC50 (pH 7.3, 25 °C): 113 nM
SMILES: COc1ccc(Cn2c(CCc3ccccc3)nnc2[C@@H](Cc2c[nH]c3ccccc23)NC(=O)[C@H](C)N)cc1 [(S)-N-((R)-1-(4-(4-Methoxybenzyl)-5-phenethyl-4H-1,2,4-triazol-3-yl)-2-(1H-indol-3-yl)ethyl)-2-aminopropanamide]

- EC50: 14 nM
SMILES: COc1ccc(-n2c(CCc3ccccc3)nnc2[C@@H](Cc2c[nH]c3ccccc23)NC(=O)C2CCNCC2)c(OC)c1 [N-[(1R)-1-[4-(2,4-dimethoxyphenyl)-5-(2-phenylethyl)-4H-1,2,4-triazol-3-yl]-2-(1H-indol-3-yl)ethyl]piperidine-4-carboxamide]

- EC50: 183 nM
- IC50: 560 nM
SMILES: O=C(N[C@H](Cc1c[nH]c2ccccc12)c1nnc(CCc2ccccc2)n1Cc1ccco1)C1CCNCC1 [N-[(1R)-1-[4-(furan-2-ylmethyl)-5-(2-phenylethyl)-4H-1,2,4-triazol-3-yl]-2-(1H-indol-3-yl)ethyl]piperidine-4-carboxamide]

- IC50: > 1000 nM
SMILES: O=C(N[C@H](Cc1c[nH]c2ccccc12)c1nnc(Cc2ccccc2)n1Cc1ccccn1)C1CCNCC1 [N-[(1R)-1-[5-benzyl-4-(pyridin-2-ylmethyl)-4H-1,2,4-triazol-3-yl]-2-(1H-indol-3-yl)ethyl]piperidine-4-carboxamide]

- EC50: 19.6 nM
SMILES: COc1ccc(Cn2c(CCc3ccccc3)nnc2[C@@H](Cc2c[nH]c3ccccc23)NC(=O)C2CNCCN2)c(OC)c1 (stereo partly drawn) [N-[(1R)-1-{4-[(2,4-dimethoxyphenyl)methyl]-5-(2-phenylethyl)-4H-1,2,4-triazol-3-yl}-2-(1H-indol-3-yl)ethyl]piperazine-2-carboxamide]

- EC50: 6.1 nM
SMILES: COc1ccc(Cn2c(CCc3ccccc3)nnc2[C@@H](Cc2c[nH]c3ccccc23)NC(=O)C2CCNCC2)c(OC)c1 [N-[(1R)-1-{4-[(2,4-dimethoxyphenyl)methyl]-5-(2-phenylethyl)-4H-1,2,4-triazol-3-yl}-2-(1H-indol-3-yl)ethyl]piperidine-4-carboxamide]

- Kb: 18 nM
SMILES: COc1ccc(Cn2c(CCc3c[nH]c4ccccc34)nnc2[C@@H](Cc2c[nH]c3ccccc23)NC(=O)C2CCCCN2)c(OC)c1 (stereo partly drawn) [N-[(1R)-1-{4-[(2,4-dimethoxyphenyl)methyl]-5-[2-(1H-indol-3-yl)ethyl]-4H-1,2,4-triazol-3-yl}-2-(1H-indol-3-yl)ethyl]piperidine-2-carboxamide]

- EC50: 143 nM
- IC50: 178 nM
SMILES: CCc1ccc(Cn2c(CCc3ccccc3)nnc2[C@@H](Cc2c[nH]c3ccccc23)NC(=O)C2CNCCN2)cc1 (stereo partly drawn) [N-[(1R)-1-{4-[(4-ethylphenyl)methyl]-5-(2-phenylethyl)-4H-1,2,4-triazol-3-yl}-2-(1H-indol-3-yl)ethyl]piperazine-2-carboxamide]

- IC50: 468 nM
SMILES: O=C(N[C@H](Cc1c[nH]c2ccccc12)c1nnc(CCc2ccccc2)n1-c1ccccc1)C1CCNCC1 [N-[(1R)-2-(1H-indol-3-yl)-1-[4-phenyl-5-(2-phenylethyl)-4H-1,2,4-triazol-3-yl]ethyl]piperidine-4-carboxamide]

- IC50 (pH 7.3, 25 °C): > 1000 nM
SMILES: O=C(N[C@H](Cc1c[nH]c2ccccc12)c1nnc(CCc2ccccc2)n1Cc1ccccn1)C1CCCNC1 (stereo partly drawn) [N-[(1R)-2-(1H-indol-3-yl)-1-[5-(2-phenylethyl)-4-(pyridin-2-ylmethyl)-4H-1,2,4-triazol-3-yl]ethyl]piperidine-3-carboxamide]

- EC50: 390 nM
SMILES: COc1ccc(Cn2c(CCc3ccccc3)nnc2[C@@H](Cc2c[nH]c3ccccc23)NC(=O)C2CCCCC2)cc1 [N-[(1R)-2-(1H-indol-3-yl)-1-{4-[(4-methoxyphenyl)methyl]-5-(2-phenylethyl)-4H-1,2,4-triazol-3-yl}ethyl]cyclohexanecarboxamide]

- IC50: 6 nM
- Kb: 51 nM
SMILES: COc1ccc(Cn2c(CCc3ccccc3)nnc2[C@@H](Cc2c[nH]c3ccccc23)NC(=O)C2CCOCC2)cc1 [N-[(1R)-2-(1H-indol-3-yl)-1-{4-[(4-methoxyphenyl)methyl]-5-(2-phenylethyl)-4H-1,2,4-triazol-3-yl}ethyl]oxane-4-carboxamide]

- EC50: 12 nM
SMILES: COc1ccc(Cn2c(CCc3ccccc3)nnc2[C@@H](Cc2c[nH]c3ccccc23)NC(=O)C2CNCCN2)cc1 (stereo partly drawn) [N-[(1R)-2-(1H-indol-3-yl)-1-{4-[(4-methoxyphenyl)methyl]-5-(2-phenylethyl)-4H-1,2,4-triazol-3-yl}ethyl]piperazine-2-carboxamide]
